Measured values taken from publication PMC10989504 (RSC Chemical Biology, 2024).

T1: papain (Carica papaya, UniProt P00784)
T1 sequence (P00784 134-345): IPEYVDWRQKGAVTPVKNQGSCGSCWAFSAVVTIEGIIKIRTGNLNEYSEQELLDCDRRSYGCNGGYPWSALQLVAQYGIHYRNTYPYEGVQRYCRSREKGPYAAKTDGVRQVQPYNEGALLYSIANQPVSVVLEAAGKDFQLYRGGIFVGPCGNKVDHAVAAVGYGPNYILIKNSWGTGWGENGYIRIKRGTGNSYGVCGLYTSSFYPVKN


Columns and labels:
[1] = target: T1, papain; assay: Papain inhibition; format: biochemical; conditions: TD19 at 10 μM; E64 and IAA positive controls
[2] = test system: AML and GBM cells; assay: Viability of AML and GBM cells, control compound; conditions: 72 h, MTT/CCK8, in words
[3] = target: T2, ALKBH5 (Homo sapiens, UniProt Q6P6C2); assay: PAGE-based demethylation assay, ALKBH5; format: biochemical; conditions: compound at 50 μM
[4] = target: FTO (Homo sapiens, UniProt Q9C0B1); assay: PAGE-based demethylation assay, FTO; format: biochemical; conditions: compound at 50 μM
[5] = target: T2, ALKBH5; assay: FRET-based m6A detection assay, ALKBH5; conditions: preincubation for various durations, in words
[6] = target: ALKBH5 C100SC267S (human, UniProt Q6P6C2 66-292, C100S;C267S); assay: pull-down
ALKBH5 C100SC267S, sequence (Q6P6C2 66-292 C100S/C267S): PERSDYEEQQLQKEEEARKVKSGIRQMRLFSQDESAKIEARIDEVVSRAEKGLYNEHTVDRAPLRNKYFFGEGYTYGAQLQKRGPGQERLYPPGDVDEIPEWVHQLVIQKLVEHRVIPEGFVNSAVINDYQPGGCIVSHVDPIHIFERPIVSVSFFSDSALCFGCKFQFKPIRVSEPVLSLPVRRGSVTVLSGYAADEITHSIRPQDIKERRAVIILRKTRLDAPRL

T2 sequence (Q6P6C2 66-292 limits assumed): as the sequence (Q6P6C2 66-292 C100S/C267S) above, with S35C, S202C counted along it
FTO, sequence (Q9C0B1 32-505 limits assumed): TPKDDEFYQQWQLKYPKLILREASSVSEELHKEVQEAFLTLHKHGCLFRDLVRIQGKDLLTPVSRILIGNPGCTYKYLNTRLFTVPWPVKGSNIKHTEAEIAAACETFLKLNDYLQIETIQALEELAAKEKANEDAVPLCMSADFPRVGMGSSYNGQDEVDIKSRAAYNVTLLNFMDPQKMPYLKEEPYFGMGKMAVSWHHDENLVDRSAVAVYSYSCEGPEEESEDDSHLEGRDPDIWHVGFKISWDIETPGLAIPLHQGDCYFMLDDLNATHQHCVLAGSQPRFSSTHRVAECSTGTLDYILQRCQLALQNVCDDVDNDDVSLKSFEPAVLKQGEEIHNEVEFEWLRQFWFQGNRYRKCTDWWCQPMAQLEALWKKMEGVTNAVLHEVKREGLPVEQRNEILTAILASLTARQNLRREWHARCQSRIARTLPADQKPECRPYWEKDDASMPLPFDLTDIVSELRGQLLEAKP

| Molecule | Inhibition of papain [1] | Inhibition of ALKBH5 demethylation of dm6A-modified substrate [3] | other results |
| --- | --- | --- | --- |
| CC(C)C[C@H](NC(=O)[C@H]1O[C@@H]1C(=O)O)C(=O)NCCCCN=C(N)N (relative stereo) [E64, L-trans-epoxysuccinyl-leucylamido(4-guanidino)butane] | significant inhibition | – | – |
| Cc1noc(C)c1-c1cc(Cl)c(Nc2ccccc2C(=O)NO)c(Cl)c1 [FB23-2] | – | – | Antiproliferative activity compared with TD19 [2]: displayed better activities than TD19 |
| NC(=O)CI [IAA, iodoacetamide] | significant inhibition | did not inhibit | Inhibition of FTO demethylation of dm6A-modified substrate [4]: did not inhibit |
| CCN1C(=O)C=CC1=O [NEM, N-ethylmaleimide] | – | inhibited the demethylation | – |
| O=C(O)c1cc(O)c2c(c1)C(=O)c1cccc(O)c1C2=O [rhein] | – | – | Time dependence and reversibility of ALKBH5 inhibition [5]: time-independent and reversible |
| TTTTTTGGACT (ssDNA, N6-methyl-deoxyadenosine at position 9) [5'-biotin-TEG dm6A DNA] | – | – | binding result [6]: binds |
